Reference: US6218519A, “Compounds and methods for the selective treatment of cancer and bacterial infections” (Pro-Neuron, Inc., priority 1996, dated 2001)
Where a name gives a salt, the structure may show the parent alone. Read-outs that look alike come from different tables or passages of the source.

Assays:
[1] = tested on: carcinoma cells; conditions: glucuronide versus parent epirubicin; cited from earlier work
[2] = tested on: A-375 (human melanoma); test: Growth inhibition studies, crystal violet staining, 72 hr; type: cell-based; conditions: A-375, 72 h
Excerpt: Growth Inhibition Studies. […] cell lines: A-375 (human melanoma), LSl174T (colon carcinoma), ME 180 (cervical carcinoma), SK-OV-3 (ovarian carcinoma), and BT-474 (breast carcinoma) were routinely grown in […] Minimal Essential Medium (MEM, Gibco Inc.) containing 10% fetal bovine serum albumin (Atlanta Biologics). Cells were passaged weekly by trypsinization (Gibco) followed by plating at reduced density (50,000 cells/ml). They were routinely tested and found to be free of mycoplasma contamination. Cells were harvested by trypsinization and plated in 96 well plates at a density of 5,000 per well in 100 μl of MEM culture media. Cells were allowed to adhere by incubation for 24 hr at 37° C. in humidified 5% CO2. The wells containing log-phase cells were treated with complete MEM containing serial dilutions of N-[(4"RS-4"-Ethoxy-4"-β-D-glucopyranurongloxy)butyl]daunorubicin (sodium salt) 10b at concentrations ranging from 10^-5 to 10^-14 M Each well also contained a 50-fold unit excess of β-glucuronidase (i.e., 50 units of enzyme per βmole of substrate). Control reactions were run with 10b in the absence of β-glucuronidase, daunomycin alone, and daunomycin in the presence β-glucuronidase. […] Cell-bound dye was solubilized with Sorenson's Buffer (0.1 M sodium citrate, pH 4.2-ethanol, 1:1, v/v) and the wells were read on an ELISA microplate autoreader at 540 nm. […]

[3] = molecular target: β-Glucuronidase (E. Coli) (EC 3. 2. 1. 31) (Escherichia coli, UniProt P05804); test: in vitro; conditions: beta-glucuronidase, phosphate buffer, pH 7.4, half-life for the disappearance of 10b
β-Glucuronidase (E. Coli) (EC 3. 2. 1. 31), sequence (P05804 whole entry): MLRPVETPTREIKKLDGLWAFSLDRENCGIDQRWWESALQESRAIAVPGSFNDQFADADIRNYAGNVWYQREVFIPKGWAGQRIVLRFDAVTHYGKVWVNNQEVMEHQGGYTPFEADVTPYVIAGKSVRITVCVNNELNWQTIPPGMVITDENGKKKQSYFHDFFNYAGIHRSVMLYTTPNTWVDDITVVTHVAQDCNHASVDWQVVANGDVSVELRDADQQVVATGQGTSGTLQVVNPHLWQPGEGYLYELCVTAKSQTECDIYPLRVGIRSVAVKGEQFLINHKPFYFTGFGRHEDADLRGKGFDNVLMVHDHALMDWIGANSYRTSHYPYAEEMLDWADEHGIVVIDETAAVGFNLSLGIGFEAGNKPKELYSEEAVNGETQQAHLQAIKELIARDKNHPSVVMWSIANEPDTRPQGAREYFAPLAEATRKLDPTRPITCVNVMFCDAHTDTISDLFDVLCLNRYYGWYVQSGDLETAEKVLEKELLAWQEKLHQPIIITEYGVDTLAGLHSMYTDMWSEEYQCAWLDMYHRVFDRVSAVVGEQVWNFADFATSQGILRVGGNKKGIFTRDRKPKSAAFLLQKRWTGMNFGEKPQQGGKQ

For `COc1cccc2c1C(=O)c1c(O)c3c(c(O)c1C2=O)C[C@@](O)(C(=O)CO)C[C@@H]3O[C@H]1C[C@H](N)[C@@H](O[C@@H]2O[C@H](C(=O)O)[C@@H](O)[C@H](O)[C@H]2O)[C@H](C)O1` [glucuronide of epirubicin], which “detoxification of the parent drug” value [1] is on record?
Its value is “up to 1000 fold”.

What does the source list for `CCOC(CCCN[C@H]1C[C@H](O[C@H]2C[C@](O)(C(C)=O)Cc3c(O)c4c(c(O)c32)C(=O)c2c(OC)cccc2C4=O)O[C@@H](C)[C@H]1O)O[C@@H]1O[C@H](C(=O)O)[C@@H](O)[C@H](O)[C@H]1O` (stereo partly drawn) [Compound 10b, N-[(4"RS)-4"-Ethoxy-4"-(β-D-glucopyranuronyloxy)butyl]daunorubicin (Sodium salt)]?
IC50 ([2]; read-out: IC50 (drug concentration that inhibited cell growth by 50%), A375 cell line, in the absence of β-glucuronidase, 72 hr): 200 ng/mL; IC50 ([2]; read-out: IC50 (drug concentration that inhibited cell growth by 50%), A375 cell line, in the presence of glucuronidase (50 units of enzyme per µmole of substrate), 72 hr): 0.02 ng/mL; half-life at 100 µM [3]: 486 min; half-life at 100 µM ([3]; 10-fold enzyme excess (10 units of enzyme per µmol of substrate), 0.05 M potassium phosphate buffer pH 7.4): 414 min; half-life at 100 µM ([3]; 20-fold enzyme excess (20 units of enzyme per µmol of substrate), 0.05 M potassium phosphate buffer pH 7.4): 120 min
